Test results reported in article PMC9693141 (Molecules, 2022).
Where two headings read alike, the source gives them in different places.

Key:
[1] = tested on: L. infantum axenic amastigotes; assay: In vitro antileishmanial evaluation on axenic amastigotes (resazurin viability); format: cell-based, Leishmania infantum; conditions: 72 h incubation then resazurin 24 h, triplicate, three independent experiments, read-out: L. infantum Axenic Amastigotes IC50 (µM) ± S.D.
Experimental: Cultures of axenic amastigotes of L. infantum were adapted from. Briefly, axenic amastigotes of L. infantum were obtained from late log promastigotes diluted at 1 × 10^6/mL in M199 complete medium acidified at pH 5.5 and cultured at 37 °C with 5% CO2.
The evaluations of activity on axenic amastigotes were adapted from the protocols previously described. […] Cell viability was then monitored as described above. The activity of the compounds was expressed as IC50, which was determined by nonlinear regression using GraphPad Prism 7.0.

[2] = tested on: L. infantum intramacrophagic amastigotes; assay: In vitro antileishmanial evaluation on intramacrophage amastigotes in RAW264.7 macrophages (Giemsa counting); format: cell-based, Leishmania infantum; conditions: infected RAW264.7 macrophages, 48 h of treatment, amastigotes per macrophage counted, read-out: L. infantum Intramacrophagic Amastigotes IC50 (µM) ± S.D.
Experimental: Promastigotes of Leishmania infantum (MHOM/FR/2008/LEM5700) were cultured in the dark at 26 °C with 5% CO2 in M199 complete medium containing M199 medium supplemented with adenosine (100 µM), hemin (0.5 mg/L), Hepes (40 mM) pH 7.4, and heat-inactivated fetal bovine serum (10%; HIFBS). Cultures of axenic amastigotes of L. infantum were adapted from. Briefly, axenic amastigotes of L. infantum were obtained from late log promastigotes diluted at 1 × 10^6/mL in M199 complete medium acidified at pH 5.5 and cultured at 37 °C with 5% CO2.
(§1) The RAW 264.7 macrophages (ATCC) were cultured at 37 °C with 5% CO2 in DMEM complete medium containing Dulbecco’s Modified Eagle’s Medium (DMEM, Invitrogen, Thermo-Fisher, Villebon-sur-Yvette, France) supplemented with penicillin-streptomycin (100 U/mL; Invitrogen) and heat-inactivated fetal bovine serum (10%; HIFBS).
Concerning the evaluation on intramacrophage amastigotes, the determination of the cytotoxicity as presented above was necessary to use the highest drug concentrations to be studied on the intramacrophage amastigote model. The evaluation on the intracellular form on the parasite was performed as previously described. RAW264.7 macrophages were plated in 16-well Lab-Tek chamber slides (Thermo-Fisher Villebon-sur-Yvette, France) at a density of 2 × 10^4 cells per well and incubated for 24 h at 37 °C with 5% CO2. Axenic amastigotes were differentiated as described above, centrifuged at 2000× g for 10 min, resuspended in DMEM complete medium, and added to each well to reach a 16:1 parasite to macrophage ratio. After 24 h of infection at 37 °C with 5% CO2, extracellular parasites were removed, and DMEM complete medium (100 µL) containing two-fold serial dilutions of the compounds, from 100 µM to 0.049 µM, was added to each well. A positive control treated with 1% DMSO was added to each Lab-tek chamber slide. After 48 h of treatment, the medium was removed and cells were fixed in methanol for 1 min, stained in 10% Giemsa (Merck, Guyancourt, France) for 5 min, and further rinsed in water before observation in phase contrast at the microscope (Olympus CX31; Olympus, Rungis, France). The number of amastigotes was counted by two independent experimenters for a total of 300 macrophages per well and the ratio of amastigotes per macrophage was determined for each condition. This ratio was further compared with the one of the positive controls, considered as 100%, to determine a percentage of inhibition (% I), as follows: % I = 100 − [(ratio of amastigotes per macrophage in treated cells/ratio of amastigotes per macrophages in untreated cells) × 100]. The activity of the compounds was expressed as IC50, which was determined by nonlinear regression using GraphPad Prism 7.0. […] In vitro antileishmanial evaluations were performed in triplicate in three independent experiments.

[3] = tested on: RAW 264.7 macrophages; assay: In vitro cytotoxicity on RAW 264.7 macrophages (resazurin); format: cell-based; conditions: 48 h of incubation, read-out: Cytotoxicity on RAW 264.7 CC50 (µM) ± S.D.
Experimental: as §1
Cells were plated in 96-well microplates at a density of 2 × 10^4 cells per well. […] In living cells, resazurin is reduced in resorufin, and this conversion is monitored by measuring OD570nm (resorufin) and OD600nm (resazurin; multimode microplate reader Spark®, Tecan, Lyon, France). […] In vitro cytotoxicity assays were performed in triplicate in three independent experiments.

| Compound | IC50 ([1]; Leishmania infantum) | IC50 ([2]; Leishmania infantum) | IC50 [1] | CC50 [3] | IC50 [2] |
| --- | --- | --- | --- | --- | --- |
| CC(C)=CCCC1(C)C=Cc2c(c3ccccc3n(Cc3ccccn3)c2=O)O1 (stereo not shown) [Compound 15c, 2-Methyl-2-(4-methylpent-3-en-1-yl)-6-(pyridin-2-ylmethyl)-2,6-dihydro-5H-pyrano [3,2-c]quinolin-5-one] | 14.2 ± 4.3 µM | > 25 µM |  |  |  |
| CC1(C)CCCC2(C)Oc3c(c(=O)n(Cc4ccccc4)c4ccccc34)C=C12 (stereo not shown) [Compound 16a, 5-Benzyl-8,8,11a-trimethyl-5,8,9,10,11,11a-hexahydro-6H-chromeno [3,2-c]quinolin-6-one] | 7 ± 2.1 µM | > 25 µM |  |  |  |
| Cn1c(=O)c2c(c3ccccc31)OC1(C)CCC3C1C2C3(C)C (stereo not shown) [Compound 12, 1,1,3a,9-Tetramethyl-1,1a,1a1,2,3,3a,9,10b-octahydro-10H-4-oxa-9-azacyclobuta [7,1]indeno [5,6-a]naphthalen-10-one] | 42.6 ± 2.1 µM | > 50 µM |  |  |  |
| Cn1c(=O)c2c(c3ccccc31)OC(C)(C)C1CCC(C)(O)C(Cl)C21 (stereo not shown) [Compound 3, Chloroaustralasine A] | 8 µM | > 50 µM | 8.1 ± 1.4 µM |  |  |
| COc1cccc(Cn2c(=O)c3c(c4ccccc42)OC(C)(CCC=C(C)C)C=C3)c1 (stereo not shown) [Compound 15b, 6-(3-Methoxybenzyl)-2-methyl-2-(4-methylpent-3-en-1-yl)-2,6-dihydro-5H-pyrano [3,2-c]quinolin-5-one] | 15 ± 1.7 µM | > 25 µM |  |  |  |
| COCCn1c(=O)c2c(c3ccccc31)OC(C)(CCC=C(C)C)C=C2 (stereo not shown) [Compound 15d, 6-(2-Methoxyethyl)-2-methyl-2-(4-methylpent-3-en-1-yl)-2,6-dihydro-5H-pyrano [3,2-c]quinolin-5-one] | 17.8 ± 2.3 µM | > 25 µM |  |  |  |
| CC(C)=CCCC1(C)C=Cc2c(c3ccccc3n(CCCCC(=O)O)c2=O)O1 (stereo not shown) [Compound 15l, 5-(2-Methyl-2-(4-methylpent-3-en-1-yl)-5-oxo-2H-pyrano [3,2-c]quinolin-6(5H)-yl)pentanoic acid] | 16.4 ± 1.7 µM | > 100 µM |  |  |  |
| CCCCCn1c(=O)c2c(c3ccccc31)OC(C)(CCC=C(C)C)C=C2 (stereo not shown) [Compound 15g, 2-Methyl-2-(4-methylpent-3-en-1-yl)-6-pentyl-2,6-dihydro-5H-pyrano [3,2-c]quinolin-5-one] | 82.7 ± 6.5 µM | 29.5 ± 9.9 µM |  | > 100 µM |  |
| CC(C)=CCCC1(C)C=Cc2c(c3ccccc3n(C(=O)OC(C)(C)C)c2=O)O1 (stereo not shown) [Compound 15j, tert-Butyl 2-methyl-2-(4-methylpent-3-en-1-yl)-5-oxo-2H-pyrano [3,2-c]quinoline-6(5H)-carboxylate] | 9.1 ± 0.4 µM | > 25 µM |  |  |  |
| COC(=O)CCCCn1c(=O)c2c(c3ccccc31)OC(C)(CCC=C(C)C)C=C2 (stereo not shown) [Compound 15k, Methyl 5-(2-methyl-2-(4-methylpent-3-en-1-yl)-5-oxo-2H-pyrano [3,2-c]quinolin-6(5H)-yl)pentanoate] | 14.6 ± 2.1 µM | 19 ± 2.2 µM |  |  |  |
| CC(C)=CCCC1(C)C=Cc2c(c3ccccc3n(C(=O)Oc3ccccc3)c2=O)O1 (stereo not shown) [Compound 15i, Phenyl 2-methyl-2-(4-methylpent-3-en-1-yl)-5-oxo-2H-pyrano [3,2-c]quinoline-6(5H)-carboxylate] | 12.9 ± 3.2 µM | > 15 µM |  |  |  |
| Cn1c(=O)c2c(c3ccccc31)OC1(C)CCCC(C)(C)C1=C2 (stereo not shown) [Compound 11, 5,8,8,11a-Tetramethyl-5,8,9,10,11,11a-hexahydro-6H-chromeno [3,2-c]quinolin-6-one] | > 100 µM | 14.7 ± 1.6 µM |  |  |  |
| CC(C)=CCCC1(C)C=Cc2c(c3ccccc3n(CCc3ccccc3)c2=O)O1 (stereo not shown) [Compound 15f, 2-Methyl-2-(4-methylpent-3-en-1-yl)-6-phenethyl-2,6-dihydro-5H-pyrano [3,2-c]quinolin-5-one] | 9.8 ± 2.9 µM | > 50 µM |  |  |  |
| CC(C)=CCCC1(C)C=Cc2c(c3ccccc3n(S(=O)(=O)c3ccccc3)c2=O)O1 (stereo not shown) [Compound 15h, 2-Methyl-2-(4-methylpent-3-en-1-yl)-6-(phenylsulfonyl)-2,6-dihydro-5H-pyrano [3,2-c]quinolin-5-one] | > 100 µM | > 100 µM |  |  |  |
| Zanthosimuline [Compound 7] |  |  | 29.1 ± 1 µM |  | > 100 µM |
| CC1(O)CCC2C(c3c(c4ccccc4[nH]c3=O)OC2(C)C)C1Cl (stereo not shown) [Compound 4] | 18.6 ± 2.5 µM | > 6.25 µM |  |  |  |
| CC(C)=CCCC1(C)C=Cc2c(c3ccccc3[nH]c2=O)O1 (stereo not shown) [Compound 14, 2-Methyl-2-(4-methylpent-3-en-1-yl)-2,6-dihydro-5H-pyrano [3,2-c]quinolin-5-one] | 15.6 ± 1.8 µM | > 100 µM |  |  |  |
| CC(C)=CCCC1(C)C=Cc2c(c3ccccc3n(Cc3ccccc3)c2=O)O1 (stereo not shown) [Compound 15a, 6-Benzyl-2-methyl-2-(4-methylpent-3-en-1-yl)-2,6-dihydro-5H-pyrano [3,2-c]quinolin-5-one] | 16.8 ± 1.8 µM | 23.7 ± 6.5 µM |  |  |  |
| CCCCCCCCCCCCCCCCOP(=O)([O-])OCC[N+](C)(C)C [Miltefosine, reference compound] | 1 ± 0.3 µM | 6.7 ± 1.7 µM |  |  |  |
